In PMC10799935, “Discovery of a peripheral 5HT2A antagonist as a clinical candidate for metabolic dysfunction-associated steatohepatitis” (Nature Communications, 2024):
Where “and” joins values, the source holds several entries; their conditions need not be identical. Equal entries are not always repeated.

Key:
[1] = system: CDAHFD-fed C57BL/6 J mice; assay: CDAHFD mice: Sirius red staining (fibrotic area);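 on Sirius red staining (fibrotic area), individual mouse: percent of liver section area positive for Sirius red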; assay type: in vivo, mouse; set-up: Sirius red staining (fibrotic area), individual mouse / Sirius red staining (fibrotic area), Average: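 percent of liver section area positive for Sirius red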; conditions: for Sirius red staining (fibrotic area), Average / Sirius red staining (fibrotic area), individual mouse: CDAHFD mice; for Sirius red staining (fibrotic area), Average: group average n=5, CDAHFD+Vehicle 5.533, Vehicle 0.905; for Sirius red staining (fibrotic area), individual mouse: individual animals No. 1-5 (Fig.4e)
Description: C57BL/6 J male mice were purchased from the Japan SLC. Inc (Hamamatsu, Japan). Mice (5 weeks old) were fed Teklad Certitied Irradiated Global 18% protein rodent diet purchased from Dooyeol Biotech Co. Ltd (Seoul, South Korea) during the acclimation period. The liver fibrosis/inflammation-induced groups were CDAHFD-fed (A06071302, Research diet). […] All animal experiments complied with the relevant ethical regulations.
Mouse liver tissues were fixed in 4% formalin solution (Sigma–Aldrich, St. Louis, MO, USA) and embedded in paraffin. 4-μm-thick liver sections were deparaffinized in xylene, and rehydrated through descending grades of ethanol. To evaluate liver fibrosis, sections were stained with Sirius red solution and subjected to immunohistochemical staining. Tissue sections, after deparaffinization, underwent a 16-hour incubation in a solution containing 0.1% Direct Red 80 (365548, Sigma-Aldrich) dissolved in Picric acid (P-201, Spectrum Chemical, CA, USA) for Sirius red staining. The sections were briefly immersed in a 0.01 N HCl solution (1129, Ducksan, Republic of Korea) for 2 min. and then rinsed with distilled water for destaining. Subsequently, the sections underwent dehydration through […] grades of ethanol. Immunohistochemical staining was performed using the Polyview Plus HRP-DAB (anti-Rabbit) Kit (ENZ-KIT159-0150, ENZO Life Science, NY, USA) following the manufacturers’ instructions. Deparaffinized sections were boiled in IHC-TekTM Epitope Retrieval solution (IW-1100, IHCWORLD, MD, USA) for 45 min., cooled for 1 h, incubated in a 3% H2O2 solution (69355-0350, JUNSEI, Japan) for 15 min., washed, and then incubated overnight with primary antibodies (α-SMA, ab5694, Abcam, 1:500 dilution; TNF-α, ab6671, Abcam, 1:100 dilution and IL-1β, ab9722, Abcam, 1:100 dilution). Subsequently, the sections were treated with Polyview Plus HRP for 2 h and developed with DAB chromogen/substrate. Stained […] sections were confirmed by light microscopy (Olympus BX53 upright microscope, Tokyo, Japan). The degree of hepatic fibrosis and immunohistochemical staining was quantified by morphometric analysis of stained liver sections using NIH ImageJ software.

CYP2C19 = CYP2C19 (Homo sapiens, UniProt P33261); assay: in vitro
HFD-fed C57BL/6J mice = assay: DIO mice: liver histology (H&E), NAFLD activity score (steatosis, inflammation, ballooning); assay type: in vivo, mouse; set-up: key to Steatosis (NAFLD Activity Score), individual animals / Steatosis score, group mean: steatosis score 0-3 (0 <5% to 3 >66% fat accumulation); key to Total NAFLD Activity Score, difference between medians: Actual (treated vs. Vehicle): total NAS, 0-8 scale (sum of steatosis, inflammation, ballooning); conditions: DIO mice; for Lobular inflammation score, Mean Diff. (Vehicle vs. treated) / Steatosis score, Mean Diff. (Vehicle vs. treated) / Total NAFLD Activity Score, Mean Diff. (Vehicle vs. treated): Dunnett's multiple comparisons test; for Lobular inflammation score, group mean / Steatosis score, group mean: PO
Description: Epididymal, inguinal, and liver were harvested, fixed in 10% (w/v) neutral buffered formalin solution (Sigma-Aldrich), and embedded in paraffin. Five-micron-thick tissue sections were deparaffinized, rehydrated, and stained with hematoxylin and eosin (H&E)[10]. The total NAFLD activity score (NAS) is a widely used measure of grading for steatosis, lobular inflammation, and ballooning. The total NAS ranges from 0-8 and is the sum of unweighted scores for steatosis (0: <5%, 1: 5 ~ 33%, 2: 33 ~ 66%, 3: >66% fat accumulation in the liver), lobular inflammation (0: no foci inflammation in x200 field, 1: <2 foci inflammation, 2: 2 ~ 4 foci inflammation, 3: >4 foci inflammation), and hepatocellular ballooning (0: none, 1: few ballooning cells, 2: prominent ballooning cells). MASH was diagnosed when NAS was >5, while non-MASH was diagnosed when NAS was <4. According to the MASH CRN scoring system, a certified pathologist determined the NAS[39]. The histological scoring was performed blindly, without knowledge of any other information.

Sequence of CYP2C19 (P33261 whole entry): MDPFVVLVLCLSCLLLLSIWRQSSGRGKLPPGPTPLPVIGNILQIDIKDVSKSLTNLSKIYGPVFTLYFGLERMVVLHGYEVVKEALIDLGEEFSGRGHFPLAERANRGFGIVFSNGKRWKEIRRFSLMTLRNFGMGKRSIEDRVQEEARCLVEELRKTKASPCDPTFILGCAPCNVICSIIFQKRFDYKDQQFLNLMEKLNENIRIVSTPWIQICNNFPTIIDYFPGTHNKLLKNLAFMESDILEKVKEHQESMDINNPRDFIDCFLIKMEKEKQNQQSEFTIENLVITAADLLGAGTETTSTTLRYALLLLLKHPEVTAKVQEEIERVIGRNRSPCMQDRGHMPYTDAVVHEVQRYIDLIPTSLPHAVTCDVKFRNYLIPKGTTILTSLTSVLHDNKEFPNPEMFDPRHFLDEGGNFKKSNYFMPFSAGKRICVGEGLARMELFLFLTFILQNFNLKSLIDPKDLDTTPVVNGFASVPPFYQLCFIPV

Which results are given for `Cc1nc2n(c(=O)c1CCN1CCC(=C3c4ccc(Cl)cc4CCc4cccnc43)CC1)CCCC2O` (centres unmarked) [Compound 11c]?
Sirius red staining (fibrotic area), Average ([1]; 11c 5 mpk): 3.015; Sirius red staining (fibrotic area), individual mouse ([1]; 11c 5 mpk): 3.008 and 1.579 and 3.604 and 3.231 and 3.651; Sirius red staining (fibrotic area), Average ([1]; 11c 10mpk): 3.818; Sirius red staining (fibrotic area), individual mouse ([1]; 11c 10mpk): 2.883 and 3.981 and 4.409 and 4.507 and 3.312; collagen accumulation in liver tissue (Sirius red staining) ([1]; CDAHFD-fed 11c vs CDAHFD-fed vehicle group): significant decrease; inhibition at 10 µM (CYP2C19): 6.83%; steatosis, lobular inflammation, and hepatocyte ballooning in liver tissue (H&E) (HFD-fed C57BL/6J mice; 5 and 10 mpk, dose-dependent manner): markedly reduced; Hepatocyte ballooning score, difference between medians: Actual (treated vs. Vehicle) (HFD-fed C57BL/6J mice; 5mpk): 0; Lobular inflammation score, difference between medians: Actual (treated vs. Vehicle) (HFD-fed C57BL/6J mice; 5mpk): -0.5; Steatosis score, difference between medians: Actual (treated vs. Vehicle) (HFD-fed C57BL/6J mice; 5mpk): 0; Total NAFLD Activity Score, difference between medians: Actual (treated vs. Vehicle) (HFD-fed C57BL/6J mice; 5mpk): -1.5; Lobular inflammation score, Mean Diff. (Vehicle vs. treated) (HFD-fed C57BL/6J mice; 5mpk): 0.3333; Steatosis score, Mean Diff. (Vehicle vs. treated) (HFD-fed C57BL/6J mice; 5mpk): 0; Total NAFLD Activity Score, Mean Diff. (Vehicle vs. treated) (HFD-fed C57BL/6J mice; 5mpk): 1.071; Lobular inflammation score, group median (HFD-fed C57BL/6J mice; 5mpk, Mann-Whitney analysis): 1.500, n=6; Steatosis score, group median (HFD-fed C57BL/6J mice; 5mpk, Mann-Whitney analysis): 2.000, n=6; Total NAFLD Activity Score, group median (HFD-fed C57BL/6J mice; 5mpk, Mann-Whitney analysis): 5.000, n=7; Hepatocyte ballooning score, difference between medians: Actual (treated vs. Vehicle) (HFD-fed C57BL/6J mice; 10mpk): -1; Lobular inflammation score, difference between medians: Actual (treated vs. Vehicle) (HFD-fed C57BL/6J mice; 10mpk): -1; Steatosis score, difference between medians: Actual (treated vs. Vehicle) (HFD-fed C57BL/6J mice; 10mpk): -1.5; Total NAFLD Activity Score, difference between medians: Actual (treated vs. Vehicle) (HFD-fed C57BL/6J mice; 10mpk): -3.5; Lobular inflammation score, Mean Diff. (Vehicle vs. treated) (HFD-fed C57BL/6J mice; 10mpk): 0.8333; Steatosis score, Mean Diff. (Vehicle vs. treated) (HFD-fed C57BL/6J mice; 10mpk): 1.5; Total NAFLD Activity Score, Mean Diff. (Vehicle vs. treated) (HFD-fed C57BL/6J mice; 10mpk): 3.667; Hepatocyte ballooning score, group median (HFD-fed C57BL/6J mice; 10mpk, Mann-Whitney analysis): 1.000, n=6; Lobular inflammation score, group median (HFD-fed C57BL/6J mice; 10mpk, Mann-Whitney analysis): 1.000, n=6; Steatosis score, group median (HFD-fed C57BL/6J mice; 10mpk, Mann-Whitney analysis): 0.5000, n=6; Total NAFLD Activity Score, group median (HFD-fed C57BL/6J mice; 10mpk, Mann-Whitney analysis): 3.000, n=6; Lobular inflammation score, group mean (HFD-fed C57BL/6J mice; 5mpk): 1.5; Steatosis score, group mean (HFD-fed C57BL/6J mice; 5mpk, 5 mg/kg): 2; Steatosis score, group mean (HFD-fed C57BL/6J mice; 10mpk): 0.5; Lobular inflammation score, group mean (HFD-fed C57BL/6J mice; 10mpk, 10 mg/kg): 1
